According to patent publication US20150141248A1, “ANTIFUNGAL COMPOSITIONS” (DSM IP ASSETS B.V., priority 2011, published 2015):

Tests used:
Botrytis cinerea = assay: In vitro antifungal activity, 96-well microtiter plates; assay type: cell-based; conditions: in vitro 25° C., 5 days
Method: The following compositions were tested: […] Subsequently, 100 μl of a Botrytis cinerea suspension prepared in PCB medium was used to inoculated each well with 2.5×10^3 spores/ml. […] The expected antifungal activity (E in %) of the active ingredient combination was calculated according to the Colby equation (Colby, 1967): […] wherein X and Y are the observed antifungal activities (in %) of the individual active ingredients X and Y, respectively.

Fusarium proliferatum [1] = assay: Treatment of wounded bananas inoculated with Fusarium proliferatum (mould growth); assay type: in vivo; conditions: for Number of moulded wounds/total number of 12 wounds: bananas 20° C.; for Observed antifungal activity O: bananas
Method: Four organic, unripe (green) bananas were used per treatment. The peel of each banana was wounded thrice using a cork borer according to the method described by de Lapeyre de Bellaire and Dubois (1987). Subsequently, each wound was inoculated with 15 μl of a Fusarium proliferatum suspension containing 1×10^5 of spores/ml. […] In addition, the antifungal compositions comprised 1.00% (w/w) methylhydroxyethylcellulose (MHEC), 0.40% (w/w) xanthan gum, 0.20% (w/w) anti-foaming agent, 0.30% (w/w) citric acid, 0.39% (w/w) lactic acid and 0.11% (w/w) potassium sorbate. The pH of the composition was 4.0. […] The treated, unripe bananas were incubated in a closed box in the dark at 20° C. and a relative air humidity of 95%, which was obtained in the presence of a saturated Na2HPO4 aqueous solution. During the first 20 days of incubation, a ripe (yellow) banana was included in the closed box to elevate the ethylene gas level and thus induce ripening of the treated, unripe bananas. […]
The expected antifungal activity (E in %) of the combined antifungal composition comprising both active ingredients was calculated according to the Colby equation (Colby, 1967): […]
wherein X and Y are the observed antifungal activities (in %) of the individual active ingredients X and Y, respectively. If the observed antifungal activity (O in %) of the combination exceeds the expected antifungal activity (E in %) of the combination and the synergy factor O/E is thus >1.0, the combined application of the active ingredients leads to a synergistic antifungal effect.

Fusarium proliferatum [2] = assay: In vitro antifungal activity, 96-well microtiter plates; assay type: cell-based; conditions: in vitro 25° C., 3 days
Method: Subsequently, 100 μl of a Botrytis cinerea suspension prepared in PCB medium was used to inoculated each well with 2.5×10^3 spores/ml.
, the in vitro antifungal activity (%) of the individual active ingredients was assessed by calculating the reduction in mould growth observed in the presence of the active ingredient in comparison to the mould growth observed in the absence of the active ingredient. The expected antifungal activity (E in %) of the active ingredient combination was calculated according to the Colby equation (Colby, 1967): […]
The experiment was conducted as described in Example 13, except for the fact that the following compositions were tested:
Furthermore, Fusarium proliferatum was used for inoculation. The antifungal activity (in %) of the individual and combined active ingredients was determined according to the method described in Example 13.

## CCCC1COC(Cn2cncn2)(c2ccc(Cl)cc2Cl)O1 (stereo not drawn) [Propiconazole, propiconazole]
Botrytis cinerea; natamycin 0.63 ppm, propiconazole 1.00 ppm or both
  Observed antifungal activity O: 0%
Botrytis cinerea; natamycin 1.25 ppm, propiconazole 0.50 ppm, prothioconazole 0.13 ppm, or natamycin 1.25 ppm with either
  Observed antifungal activity O: 0%
Fusarium proliferatum [1]; 50 ppm natamycin, 250 ppm propiconazole or both, Day 29
  Number of moulded wounds/total number of 12 wounds: 5/12
Fusarium proliferatum [1]; 50 ppm natamycin, 250 ppm propiconazole or both, Day 29, listed as propiconazole
  Number of moulded wounds/total number of 12 wounds: 5
Fusarium proliferatum [1]; 50 ppm natamycin, 250 ppm propiconazole or both, Day 32
  Number of moulded wounds/total number of 12 wounds: 8/12
Fusarium proliferatum [1]; 50 ppm natamycin, 250 ppm propiconazole or both, Day 32, listed as propiconazole
  Number of moulded wounds/total number of 12 wounds: 8
Fusarium proliferatum [1]; 50 ppm natamycin, 250 ppm propiconazole or both, Day 34
  Number of moulded wounds/total number of 12 wounds: 10/12
Fusarium proliferatum [1]; 50 ppm natamycin, 250 ppm propiconazole or both, Day 34, listed as propiconazole
  Number of moulded wounds/total number of 12 wounds: 10
Fusarium proliferatum [1]; 50 ppm natamycin, 250 ppm propiconazole or both, Day 36
  Number of moulded wounds/total number of 12 wounds: 12/12
Fusarium proliferatum [1]; 50 ppm natamycin, 250 ppm propiconazole or both, Day 36, listed as propiconazole
  Number of moulded wounds/total number of 12 wounds: 12
Fusarium proliferatum [1]; 50 ppm natamycin, 250 ppm propiconazole or both, Day 39
  Number of moulded wounds/total number of 12 wounds: 12/12
Fusarium proliferatum [1]; 50 ppm natamycin, 250 ppm propiconazole or both, Day 39, listed as propiconazole
  Number of moulded wounds/total number of 12 wounds: 12
Fusarium proliferatum [1]; 50 ppm natamycin, 250 ppm propiconazole or both, Day 42
  Number of moulded wounds/total number of 12 wounds: 12/12
Fusarium proliferatum [1]; 50 ppm natamycin, 250 ppm propiconazole or both, Day 42, listed as propiconazole
  Number of moulded wounds/total number of 12 wounds: 12
Fusarium proliferatum [1]; 250 ppm natamycin, 500 ppm propiconazole or both, Day 34
  Number of moulded wounds/total number of 12 wounds: 10/12
Fusarium proliferatum [1]; 250 ppm natamycin, 500 ppm propiconazole or both, Day 34, listed as propiconazole
  Number of moulded wounds/total number of 12 wounds: 10
Fusarium proliferatum [1]; 250 ppm natamycin, 500 ppm propiconazole or both, Day 36
  Number of moulded wounds/total number of 12 wounds: 10/12
Fusarium proliferatum [1]; 250 ppm natamycin, 500 ppm propiconazole or both, Day 36, listed as propiconazole
  Number of moulded wounds/total number of 12 wounds: 10
Fusarium proliferatum [1]; 500 ppm natamycin, 150 ppm propiconazole or both, Day 26
  Number of moulded wounds/total number of 12 wounds: 9/12
Fusarium proliferatum [1]; 500 ppm natamycin, 150 ppm propiconazole or both, Day 26, listed as propiconazole
  Number of moulded wounds/total number of 12 wounds: 9
Fusarium proliferatum [1]; 500 ppm natamycin, 150 ppm propiconazole or both, Days 27-29
  Number of moulded wounds/total number of 12 wounds: 12/12
Fusarium proliferatum [1]; 500 ppm natamycin, 150 ppm propiconazole or both, Days 27-29, listed as propiconazole
  Number of moulded wounds/total number of 12 wounds: 12
Fusarium proliferatum [1]; 500 ppm natamycin, 150 ppm propiconazole or both, Days 31-32
  Number of moulded wounds/total number of 12 wounds: 12/12
Fusarium proliferatum [1]; 500 ppm natamycin, 150 ppm propiconazole or both, Days 31-32, listed as propiconazole
  Number of moulded wounds/total number of 12 wounds: 12
Fusarium proliferatum [1]; 500 ppm natamycin, 1000 ppm propiconazole or both, Day 39
  Number of moulded wounds/total number of 12 wounds: 4/12
Fusarium proliferatum [1]; 500 ppm natamycin, 1000 ppm propiconazole or both, Day 39, listed as propiconazole
  Number of moulded wounds/total number of 12 wounds: 4
Fusarium proliferatum [1]; 500 ppm natamycin, 1000 ppm propiconazole or both, Day 42
  Number of moulded wounds/total number of 12 wounds: 4/12
Fusarium proliferatum [1]; 500 ppm natamycin, 1000 ppm propiconazole or both, Day 42, listed as propiconazole
  Number of moulded wounds/total number of 12 wounds: 4
Fusarium proliferatum [1]; 50 ppm natamycin, 250 ppm propiconazole or both, 29 days
  Observed antifungal activity O: 92%
Fusarium proliferatum [1]; 50 ppm natamycin, 250 ppm propiconazole or both, 32 days
  Observed antifungal activity O: 90%
Fusarium proliferatum [1]; 50 ppm natamycin, 250 ppm propiconazole or both, 34 days
  Observed antifungal activity O: 85%
Fusarium proliferatum [1]; 50 ppm natamycin, 250 ppm propiconazole or both, 36 days
  Observed antifungal activity O: 81%
Fusarium proliferatum [1]; 50 ppm natamycin, 250 ppm propiconazole or both, 39 days
  Observed antifungal activity O: 57%
Fusarium proliferatum [1]; 50 ppm natamycin, 250 ppm propiconazole or both, 42 days
  Observed antifungal activity O: 47%
Fusarium proliferatum [1]; 250 ppm natamycin, 50 ppm propiconazole or both, 23 days
  Observed antifungal activity O: 36%
Fusarium proliferatum [1]; 250 ppm natamycin, 50 ppm propiconazole or both, 27 days
  Observed antifungal activity O: 30%
Fusarium proliferatum [1]; 250 ppm natamycin, 50 ppm propiconazole or both, 29 days
  Observed antifungal activity O: 35%
Fusarium proliferatum [1]; 250 ppm natamycin, 500 ppm propiconazole or both, 34 days
  Observed antifungal activity O: 74%
Fusarium proliferatum [1]; 250 ppm natamycin, 500 ppm propiconazole or both, 36 days
  Observed antifungal activity O: 62%
Fusarium proliferatum [1]; 250 ppm natamycin, 500 ppm propiconazole or both, 39 days
  Observed antifungal activity O: 43%
Fusarium proliferatum [1]; 250 ppm natamycin, 500 ppm propiconazole or both, 42 days
  Observed antifungal activity O: 33%
Fusarium proliferatum [1]; 500 ppm natamycin, 150 ppm propiconazole or both, 27 days
  Observed antifungal activity O: 57%
Fusarium proliferatum [1]; 500 ppm natamycin, 150 ppm propiconazole or both, 28 days
  Observed antifungal activity O: 56%
Fusarium proliferatum [1]; 500 ppm natamycin, 150 ppm propiconazole or both, 29 days
  Observed antifungal activity O: 54%
Fusarium proliferatum [1]; 500 ppm natamycin, 150 ppm propiconazole or both, 31 days
  Observed antifungal activity O: 44%
Fusarium proliferatum [1]; 500 ppm natamycin, 150 ppm propiconazole or both, 32 days
  Observed antifungal activity O: 33%
Fusarium proliferatum [2]; natamycin 2.5 ppm, propiconazole 7.5 ppm or both
  Observed antifungal activity O: 0%
Fusarium proliferatum [2]; propiconazole 10.0 ppm alone or with natamycin 2.5 ppm
  Observed antifungal activity O: 0%
